In ChEMBL document CHEMBL5331122, “Structure-Activity Relationship Study of Antimicrobial Peptide PE2 Delivered Novel Linear Derivatives with Potential of Eradicating Biofilms and Low Incidence of Drug Resistance” (J Med Chem, 2023):
Values after ≈ are worked out from the molar mass of the structure shown.

Assays:
Erythrocyte = experiment: Hemolytic activity in mouse red blood cell assessed as hemolysis incubated for 1 hr; assay type: toxicity, cell-based; details: dose 4-256 µg/ml
Bacillus subtilis = experiment: Antibacterial activity against Bacillus subtilis ATCC 23857 assessed as bacterial growth inhibition incubated for 18 hrs by broth microdilution method; assay type: functional
Enterococcus faecalis = experiment: Antibacterial activity against Enterococcus faecalis ATCC 29212 assessed as bacterial growth inhibition incubated for 18 hrs by broth microdilution method; assay type: functional
Pseudomonas aeruginosa = experiment: Antibacterial activity against Pseudomonas aeruginosa ATCC 27853 assessed as bacterial growth inhibition incubated for 18 hrs by broth microdilution method; assay type: functional
Staphylococcus aureus = experiment: Antibacterial activity against Staphylococcus aureus ATCC 25923 assessed as bacterial growth inhibition incubated for 18 hrs by broth microdilution method; assay type: functional
Klebsiella pneumoniae = experiment: Antibacterial activity against Klebsiella pneumoniae ATCC 700603 assessed as bacterial growth inhibition incubated for 18 hrs by broth microdilution method; assay type: functional
Escherichia coli = experiment: Antibacterial activity against Escherichia coli ATCC 25922 assessed as bacterial growth inhibition incubated for 18 hrs by broth microdilution method; assay type: functional
[1] = Hemolytic activity in mouse red blood cells assessed as hemolysis at 256 microg/ml incubated for 1 hr relative to control; assay type: toxicity, cell-based, Erythrocyte; details: red blood cells (erythrocytes), at 256 µg/mL, read-out: Activity

| SMILES | HC10 (Erythrocyte) [µg/mL] | MIC (Bacillus subtilis) [µg/mL] | MIC (Enterococcus faecalis) [µg/mL] | MIC (Pseudomonas aeruginosa) [µg/mL] | MIC (Staphylococcus aureus) [µg/mL] | MIC (Klebsiella pneumoniae) [µg/mL] | MIC (Escherichia coli) [µg/mL] | hemolysis at 1 h, 256 µg/mL [1] [%] |
| --- | --- | --- | --- | --- | --- | --- | --- | --- |
| CCCCCCCCCCCCCC(=O)N[C@@H](CCN)C(=O)N[C@H](C(=O)N[C@@H](CCN)C(=O)N[C@H](Cc1ccccc1)C(=O)N[C@@H](CC(C)C)C(=O)N[C@@H](CCN)C(=O)N[C@@H](C(=O)N[C@@H](CC(C)C)C(=O)N[C@H](C(N)=O)[C@@H](C)O)C(C)C)[C@@H](C)CC | 32 | 16 (≈ 13.2 µM) | 16 (≈ 13.2 µM) | 32 (≈ 26.3 µM) | 32 (≈ 26.3 µM) | > 128 | 128 (≈ 105 µM) |  |
| CCCCCCCCCC(=O)N[C@@H](CCN)C(=O)N[C@H](C(=O)N[C@@H](CCN)C(=O)N[C@H](Cc1ccccc1)C(=O)N[C@@H](CC(C)C)C(=O)N[C@@H](CCN)C(=O)N[C@@H](C(=O)N[C@@H](CC(C)C)C(=O)N[C@H](C(N)=O)[C@@H](C)O)C(C)C)[C@@H](C)CC | 32 | 4 (≈ 3.45 µM) | 8 (≈ 6.91 µM) | 4 (≈ 3.45 µM) | 4 (≈ 3.45 µM) | 4 (≈ 3.45 µM) | 4 (≈ 3.45 µM) |  |
| CCCCCC(=O)N[C@@H](CCN)C(=O)N[C@H](C(=O)N[C@@H](CCN)C(=O)N[C@H](Cc1ccccc1)C(=O)N[C@@H](CC(C)C)C(=O)N[C@H]1CCNC(=O)[C@H]([C@@H](C)O)NC(=O)[C@H](CC(C)C)NC(=O)[C@@H](C(C)C)NC1=O)[C@@H](C)CC | 512 | 4 (≈ 3.69 µM) | > 128 | 128 (≈ 118 µM) | 32 (≈ 29.5 µM) | 128 (≈ 118 µM) | 16 (≈ 14.7 µM) | < 5 |
| NC[C@H]1O[C@H](O[C@H]2[C@H](O)[C@@H](O[C@H]3O[C@H](CO)[C@@H](O)[C@H](N)[C@H]3O)[C@H](N)C[C@@H]2N)[C@H](O)[C@@H](O)[C@@H]1O [KANAMYCIN] |  | < 1 | 16 (≈ 33 µM) | > 128 | < 1 | 32 (≈ 66 µM) | 4 (≈ 8.26 µM) |  |
| CCCCCC(=O)N[C@@H](CCN)C(=O)N[C@H](C(=O)N[C@@H](CCN)C(=O)N[C@H](Cc1ccccc1)C(=O)N[C@@H](CC(C)C)C(=O)N[C@@H](CCN)C(=O)N[C@@H](C(=O)N[C@@H](CC(C)C)C(=O)N[C@H](C(N)=O)[C@@H](C)O)C(C)C)[C@@H](C)CC | 512 | 4 (≈ 3.63 µM) | 128 (≈ 116 µM) | 4 (≈ 3.63 µM) | 32 (≈ 29 µM) | 32 (≈ 29 µM) | 16 (≈ 14.5 µM) | < 10 |
| CCCCCCCCC(=O)N[C@@H](CCN)C(=O)N[C@H](C(=O)N[C@@H](CCN)C(=O)N[C@H](Cc1ccccc1)C(=O)N[C@@H](CC(C)C)C(=O)N[C@@H](CCN)C(=O)N[C@@H](C(=O)N[C@@H](CC(C)C)C(=O)N[C@H](C(N)=O)[C@@H](C)O)C(C)C)[C@@H](C)CC | 64 | 4 (≈ 3.49 µM) | 8 (≈ 6.99 µM) | 8 (≈ 6.99 µM) | 8 (≈ 6.99 µM) | 8 (≈ 6.99 µM) | 4 (≈ 3.49 µM) |  |
| CCCCCCCCCCC(=O)N[C@@H](CCN)C(=O)N[C@H](C(=O)N[C@@H](CCN)C(=O)N[C@H](Cc1ccccc1)C(=O)N[C@@H](CC(C)C)C(=O)N[C@@H](CCN)C(=O)N[C@@H](C(=O)N[C@@H](CC(C)C)C(=O)N[C@H](C(N)=O)[C@@H](C)O)C(C)C)[C@@H](C)CC | 16 | 2 (≈ 1.71 µM) | 8 (≈ 6.82 µM) | 2 (≈ 1.71 µM) | 2 (≈ 1.71 µM) | 2 (≈ 1.71 µM) | 4 (≈ 3.41 µM) |  |
| CCCCCCCCCCCC(=O)N[C@@H](CCN)C(=O)N[C@H](C(=O)N[C@@H](CCN)C(=O)N[C@H](Cc1ccccc1)C(=O)N[C@@H](CC(C)C)C(=O)N[C@@H](CCN)C(=O)N[C@@H](C(=O)N[C@@H](CC(C)C)C(=O)N[C@H](C(N)=O)[C@@H](C)O)C(C)C)[C@@H](C)CC | 8 | 8 (≈ 6.74 µM) | 4 (≈ 3.37 µM) | 8 (≈ 6.74 µM) | 16 (≈ 13.5 µM) | 8 (≈ 6.74 µM) | 4 (≈ 3.37 µM) |  |
| CCCCCCCC(=O)N[C@@H](CCN)C(=O)N[C@H](C(=O)N[C@@H](CCN)C(=O)N[C@H](Cc1ccccc1)C(=O)N[C@@H](CC(C)C)C(=O)N[C@@H](CCN)C(=O)N[C@@H](C(=O)N[C@@H](CC(C)C)C(=O)N[C@H](C(N)=O)[C@@H](C)O)C(C)C)[C@@H](C)CC | 128 | 4 (≈ 3.54 µM) | 16 (≈ 14.2 µM) | 8 (≈ 7.08 µM) | 8 (≈ 7.08 µM) | 8 (≈ 7.08 µM) | 4 (≈ 3.54 µM) |  |
| CC[C@H](C)[C@H](NC(=O)[C@@H](N)CCN)C(=O)N[C@@H](CCN)C(=O)N[C@H](Cc1ccccc1)C(=O)N[C@@H](CC(C)C)C(=O)N[C@@H](CCN)C(=O)N[C@@H](C(=O)N[C@@H](CC(C)C)C(=O)N[C@H](C(N)=O)[C@@H](C)O)C(C)C | 512 | 32 (≈ 31.9 µM) | > 128 | 32 (≈ 31.9 µM) | > 128 | > 128 | 128 (≈ 127 µM) |  |
